Earlier results as cited in patent US20260315441A1, “FORMULATIONS OF PENICILLIN AND METHODS FOR STABILIZING PENICILLIN” (VETERINARY PHARMACY CORPORATION, priority 2023, published 2026).
Read-outs that look alike come from different tables or passages of the source.

pH of highest stability (aqueous solution)	degradation of penicillin G (at 5° C.)	degradation of penicillin G (at 37° C.)	minimum degradation pH point (aqueous solution)	stability outside of the pH range of 5-8 (pH outside 5-8)	Compound
5-8 pH	1.92 %/hour	3.29 %/hour	–	–	CC1(C)S[C@@H]2[C@H](NC(=O)Cc3ccccc3)C(=O)N2[C@H]1C(=O)O [Penicillin G, benzylpenicillin]
–	–	–	6.5 pH	very unstable	CC1(C)S[C@@H]2[C@H](NC(=O)Cc3ccccc3)C(=O)N2[C@H]1C(=O)O [Penicillin]
